Measurements: patent US20090023700A1, “NEUROPROTECTIVE TREATMENTS” (University of Louisville Research Foundation, priority 2007, published 2009)

Tested on: human aortic endothelial cells
Test: Apoptosis of serum-deprived cultured endothelial cells
Format: cell-based
Conditions: for apoptotic endothelial cells: 3 μM
Protocol: To determine whether bpV(phen) can directly promote survival of endothelial cells, it was tested on cultured human aortic endothelial cells deprived of serum. […] With 3 μM bpV(phen), only ˜1.3% were apoptotic in both the 0 and 5% serum groups (FIG. 9A). Eighteen hours after plating under control conditions, between 5 and 13% of endothelial cells were apoptotic, whereas treatment with 3 μM bpV(phen) reduced apoptosis to ˜2-3% (FIG. 9B).
Endothelial cell cultures. Human aortic endothelial cells (Lonza Walkersville) were plated at 5×10^4 cells per well in 24 well polystyrene plates and incubated with different concentrations of bpV(phen) for 6 or 18 h at 37° C. in DMEM/Ham's F-12 (BioWhittaker) plus EGM-2 growth factor supplements [EGM-2 SingleQuots (Lonza Walkersville) containing hydrocortisone, human epidermal growth factor, FBS, vascular endothelial growth factor, human basic fibroblast growth factor, R3-IGF-1, ascorbic acid, heparin, and gentamicin/amphotericin-B] and 10-20% fetal calf serum. […] Afterward, the endothelial cells were fixed in 4% paraformaldehyde for 2 h, the nuclei were stained with 2.5 μg/ml DNA dye Hoechst 33258 (bis-benzimide; Sigma) in PBS containing 0.1% Triton X-100 for 30 min, and the cells were covered with Fluoromount-G (Southern Biotechnology) to reduce fluorescence-induced fading (Invitrogen).
Quantitative measurements and statistics. The extent of sensory innervation of the gracile nucleus was determined by measuring the CTB-labeled terminal fiber area in every third section as described previously (Baker et al. (2007) Exp Neurol 205:82-91). In short, images of every third section through the right and left gracile nuclei were analyzed using the density slice feature of the Scion Image software. […] Images of EC-stained sections were captured, and the positive areas were measured with Scion Image. […] The number of spared myelinated axons at C3 was counted in semithin sections using a 63× oil objective in 15.7×15.7 μm grids placed over the middle part of each fasciculus gracilis (see FIG. 4D-4F). […]

O.O.O.OO.OO.[K+].[OH-].[V].c1cnc2c(c1)ccc1cccnc12 [bpV(phen), potassium bisperoxo(1,10-phenanthroline)oxovanadate (V)]
endothelial apoptosis (1 μM, 18 h, 0, 1.25, 2.5 and 5% serum): only reduces endothelial apoptosis in the 2.5 and 5% serum groups | apoptotic endothelial cells (6 h after plating, 0 and 5% serum groups, control 2-3%): ~1.3% | apoptotic endothelial cells (18 h after plating, serum deprived, control 5-13%): 2-3%
